Results as given in patent US9102620B2, “Deuterated N-ethyl-N-phenyl-1,2-dihydro-4-hydroxy-5-chloro-1-methyl-2-oxoquinoline-3-carboxamide, salts and uses thereof” (TEVA PHARMACEUTICAL INDUSTRIES, LTD., priority 2010, dated 2015).
“And” between values parts separate entries of the source, which are not always exact repeats. Identical values can stand only once. Like-named read-outs stand apart in the source and are kept apart here.

What was measured:
[1] = tested on: human hepatocyte culture H971; experiment: Morphology of cultured human hepatocytes after treatment; format: cell-based; conditions: within 24 hours after final treatment
Experimental: At the time of isolation the viability of the human hepatocyte preparation was 70.9%. During and after the 72-hour adaptation period, the culture was observed daily by light microscopy and judged to be morphologically normal with confluency adequate for treatment with test and control articles. Within 24 hours after the final treatment, hepatocytes were photographed to document their morphological integrity and any overt signs of toxicity of the test articles. Representative photomicrographs are maintained at the Testing Facility. […] Prior to and during treatment, human hepatocyte cultures formed confluent monolayers with few intercellular spaces; they were cuboidal and contained intact cell membranes and granular cytoplasm with one or two centrally located nuclei.

[2] = tested on: CYP3A4/5; conditions: human, 3 days; for Enzyme activity, Midazolam 1′-hydroxylation (CYP3A4/5) / Percent positive control, Midazolam 1′-hydroxylation (CYP3A4/5) activity: hepatocytes
Experimental: (§1) After treatment, the cells were incubated in situ with marker substrates for the analysis of phenacetin O-dealkylation (marker for CYP1A2) and midazolam 1′-hydroxylation (marker for CYP3A4/5) by LC/MS/MS.
(§2) Incubations of hepatocytes with probe substrates were conducted in accordance with SOP L5041.02. Approximately 24 hours after the last treatment, spent media was aspirated from the wells, and each well was rinsed two times with pre-warmed (37±2° C.) fresh culture media. Media was aspirated from the wells and reactions were started by addition of 200 μL pre-warmed media containing the probe substrate to each well. […] At 30 minutes, an aliquot (150 μL) of the incubation mixture was removed and added to a well of a 96-well plate containing 300 μL of stop reagent (acetonitrile) and internal standard (Table 2). The mixtures were mixed thoroughly and allowed to sit for at least 15 minutes at 2-8° C. Samples were centrifuged at 2000×g for 10 minutes at 2-8° C., and supernatant fractions were analyzed by LC/MS/MS.
(§3) All analyses were performed with validated LC/MS/MS methods. The procedures used for the analysis of each metabolite followed the applicable LC/MS/MS analytical method SOPs and are summarized in Table 2. The MS equipment was either an ABI Sciex (Applied Biosystems/MDS SCIEX) API 4000 or API 3000 instrument with Shimadzu HPLC pumps and autosampler systems.
(§4) Individual rates of reaction from like treatment groups were averaged, and for those groups with n≧3, standard deviations were determined. Fold increases were determined by dividing the enzymatic rate for each treatment group by that of the vehicle control. Percent positive control was calculated with the following equation: […]

[3] = tested on: CYP1A2; conditions: human, 3 days; for Enzyme activity, Phenacetin O-dealkylation (CYP1A2) / Percent positive control, Phenacetin O-dealkylation (CYP1A2) activity: hepatocytes
Experimental: as §1, §2, §3, §4

[4] = Pharmacokinetic profile in rat plasma following oral administration; format: in vivo
Experimental: The main objectives of this example were: • Quantification of Compound 1, Compound 2, Compound 3 and Laquinimod in rat plasma using LC/MS/MS bioanalytical method. • Characterization of the pharmacokinetic profile of Compound 1, Compound 2, Compound 3 and Laquinimod following oral (PO) administration at a dose of 0.2 mg/kg. • The measurement DELAQ concentrations in the collected plasma samples. Rats cannulated at the right common jugular vein by polyethylene tubing were used. In the in-life part, three cannulated female rats were treated with each of the four test articles at dose of 0.2 mg/kg. Blood was withdrawn from the rats at five different time points for the preparation of plasma. The concentrations of Compound 1, Compound 2, Compound 3, laquinimod, and DELAQ were determined in these plasma samples, using applicable LC/MS/MS methods. Oral administration was performed by oral gavage at a dosage volume of 5 ml/kg using a blunt feeding stainless steel needle (Popper & Sons, USA). Body weights were measured before dose administration and doses were calculated on the basis of individual body weight. Blood were withdrawn from animals at the following time points: 1, 2, 4, 8 and 24 hours after dosing as detailed in the table below. The actual sampling time were recorded. Each animal was restrained firmly. After the removal of the seal the port of the cannula was accessed with an appropriate blunted needle mounted on a syringe containing PBS. After having withdrawn approximately 100 μL of blood, the syringe was changed to a clean heparinized syringe. Approximately 250 μL of blood was collected for the preparation of plasma. The first 100 μL fraction of blood was returned and 250 μL of PBS was given to the animal through the catheter. The catheter was filled by heparinized glycerol (100 IU/ml) solution prepared by mixing 10 ml stock heparin (200 IU/ml) with 10 ml of sterile glycerol (d=1.26 g/mL). Blood specimens were mixed immediately and were placed on water ice. Whole blood was centrifuged at 2500 g for 10 min at 4° C., and the separated plasma was transferred into pre-labeled polypropylene tubes and the tubes were frozen at −70° C. within 70 minutes of collection. The concentrations of test items (Compound 1, Compound 2, Compound 3 and Laquinimod) and the concentration of DELAQ were determined in the plasma samples by using reliable LC/MS/MS assay. Pharmacokinetic parameters were calculated and the mean plasma levels versus time curves were evaluated. The following pharmacokinetic parameters were determined from the mean plasma concentration-time data (mean of three animals at each time point) of Compound 1, Compound 2, Compound 3 and Laquinimod.

[5] = tested on: MOG induced EAE; experiment: MOG induced EAE in C57BL/6 mice; format: in vivo; conditions: daily; for Mortality: Day 0 to Day 30; for % inhibition 1 (according to incidence) / % inhibition 2 (according to MMS) / % inhibition 3 (according to GMS): compared to vehicle; for Incidence: sick mice/group
[6] = female, rat, po, 0.2 mg/kg, Average of rats
[7] = female, rat, po, 0.2 mg/kg, individual rats
[8] = individual rats, oral 0.2 mg/kg

CCN(C(=O)c1c(O)c2c(Cl)cccc2n(C)c1=O)c1ccccc1 [Laquinimod, N-ethyl-N-phenyl-1,2-dihydro-4-hydroxy-5-chloro-1-methyl-2-oxoquinoline-3-carboxamide]
cell morphology after treatment [1]: no changes in cell morphology | Fold Increase, Midazolam 1′-hydroxylation (CYP3A4/5) activity ([2]; 0.01 μM): 0.92 fold | Fold Increase, Midazolam 1′-hydroxylation (CYP3A4/5) activity ([2]; 0.05 μM): 0.82 fold | Fold Increase, Midazolam 1′-hydroxylation (CYP3A4/5) activity ([2]; 0.1 μM): 0.78 fold | Fold Increase, Midazolam 1′-hydroxylation (CYP3A4/5) activity ([2]; 1 μM): 0.54 fold | Fold Increase, Midazolam 1′-hydroxylation (CYP3A4/5) activity ([2]; 10 μM): 0.49 fold | Enzyme activity, Midazolam 1′-hydroxylation (CYP3A4/5) ([2]; 0.01 μM): 0.180 ± 0.023 pmol/mg protein/min | Percent positive control, Midazolam 1′-hydroxylation (CYP3A4/5) activity ([2]; 0.01 μM): −2.04% | Enzyme activity, Midazolam 1′-hydroxylation (CYP3A4/5) ([2]; 0.05 μM): 0.161 ± 0.013 pmol/mg protein/min | Percent positive control, Midazolam 1′-hydroxylation (CYP3A4/5) activity ([2]; 0.05 μM): −4.63% | Enzyme activity, Midazolam 1′-hydroxylation (CYP3A4/5) ([2]; 0.1 μM): 0.151 ± 0.002 pmol/mg protein/min | Percent positive control, Midazolam 1′-hydroxylation (CYP3A4/5) activity ([2]; 0.1 μM): −5.89% | Enzyme activity, Midazolam 1′-hydroxylation (CYP3A4/5) ([2]; 1 μM): 0.106 ± 0.004 pmol/mg protein/min | Percent positive control, Midazolam 1′-hydroxylation (CYP3A4/5) activity ([2]; 1 μM): −12.0% | Enzyme activity, Midazolam 1′-hydroxylation (CYP3A4/5) ([2]; 10 μM): 0.0957 ± 0.0067 pmol/mg protein/min | Percent positive control, Midazolam 1′-hydroxylation (CYP3A4/5) activity ([2]; 10 μM): −13.4% | Fold Increase, Phenacetin O-dealkylation (CYP1A2) activity ([3]; 0.01 μM): 8.43 fold | Fold Increase, Phenacetin O-dealkylation (CYP1A2) activity ([3]; 0.05 μM): 18.06 fold | Fold Increase, Phenacetin O-dealkylation (CYP1A2) activity ([3]; 0.1 μM): 21.75 fold | Fold Increase, Phenacetin O-dealkylation (CYP1A2) activity ([3]; 1 μM): 43.79 fold | Fold Increase, Phenacetin O-dealkylation (CYP1A2) activity ([3]; 10 μM): 61.02 fold | Enzyme activity, Phenacetin O-dealkylation (CYP1A2) ([3]; 0.01 μM): 25.2 ± 0.8 pmol/mg protein/min | Percent positive control, Phenacetin O-dealkylation (CYP1A2) activity ([3]; 0.01 μM): 27.1% | Enzyme activity, Phenacetin O-dealkylation (CYP1A2) ([3]; 0.05 μM): 54.0 ± 4.5 pmol/mg protein/min | Percent positive control, Phenacetin O-dealkylation (CYP1A2) activity ([3]; 0.05 μM): 62.3% | Enzyme activity, Phenacetin O-dealkylation (CYP1A2) ([3]; 0.1 μM): 65.1 ± 1.9 pmol/mg protein/min | Percent positive control, Phenacetin O-dealkylation (CYP1A2) activity ([3]; 0.1 μM): 75.8% | Enzyme activity, Phenacetin O-dealkylation (CYP1A2) ([3]; 1 μM): 131 ± 12 pmol/mg protein/min | Percent positive control, Phenacetin O-dealkylation (CYP1A2) activity ([3]; 1 μM): 156% | Enzyme activity, Phenacetin O-dealkylation (CYP1A2) ([3]; 10 μM): 183 ± 7 pmol/mg protein/min | Percent positive control, Phenacetin O-dealkylation (CYP1A2) activity ([3]; 10 μM): 219% | AUC(0-inf) [4, 6]: 15500 ng·h/mL | AUC(0-t) [4, 6]: 11700 ng·h/mL | half-life [4, 6]: 11.8 h | Cmax ([4]; female, rat, po, 0.2 mg/kg, Average of rats, read-out: Cmax): 794 ng/mL | Tmax ([4]; female, rat, po, 0.2 mg/kg, Average of rats, read-out: Tmax): 1.7 h | AUC(0-inf) [4, 7]: 14700 ng·h/mL | AUC(0-t) [4, 7]: 11000 ng·h/mL | half-life [4, 7]: 12 h | Cmax ([4]; female, rat, po, 0.2 mg/kg, individual rats, read-out: Cmax): 770 ng/mL | Tmax ([4]; female, rat, po, 0.2 mg/kg, individual rats, read-out: Tmax): 2 h | AUCinf [4, 8]: 17141.8 ng·h/mL and 14684.6 ng·h/mL | AUClast [4, 8]: 12659.7 ng·h/mL and 11487.3 ng·h/mL | Cmax [4, 8]: 774.8 ng/mL and 838.8 ng/mL | T1/2 [4, 8]: 12.4 h and 10.9 h | Tmax [4, 8]: 1.0 h | GMS value (group mean score) ([5]; 10 mg/kg orally): 1.14 ± 0.5 | MMS value (mean maximal score) ([5]; 10 mg/kg orally): 2.1 ± 1.9 | Mean Duration ([5]; 10 mg/kg orally): 9.3 ± 8.3 days | Mean Onset ([5]; 10 mg/kg orally): 21.6 ± 8.4 days | Mortality ([5]; 10 mg/kg orally): 0/15 | % inhibition 1 (according to incidence) ([5]; 10 mg/kg orally): 35.7% | % inhibition 2 (according to MMS) ([5]; 10 mg/kg orally): 34.4% | % inhibition 3 (according to GMS) ([5]; 10 mg/kg orally): 48.4% | % inhibition 3 (according to GMS) ([5]; 10 mg/kg orally, listed as laquinimod): 48.4% | Incidence ([5]; 10 mg/kg orally): 9/15 | GMS value (group mean score) ([5]; 25 mg/kg orally): 0.5±0.1 and 0.5 ± 0.13 | MMS value (mean maximal score) ([5]; 25 mg/kg orally): 1.3±1.8 | Mean Duration ([5]; 25 mg/kg orally): 3.0 ± 5.8 days | Mean Onset ([5]; 25 mg/kg orally): 28.0 ± 5.8 days | Mortality ([5]; 25 mg/kg orally): 0/15 | % inhibition 1 (according to incidence) ([5]; 25 mg/kg orally): 71.4% | % inhibition 2 (according to MMS) ([5]; 25 mg/kg orally): 59.4% | % inhibition 3 (according to GMS) ([5]; 25 mg/kg orally): 97.7% | Incidence ([5]; 25 mg/kg orally): 4/15
